Broadly, the bioavailability is the share of a dose that reaches the circulation, judged against a reference dose that is usually intravenous. In general, IC50 refers to the point on the concentration scale where inhibition reaches its midpoint. Lower therefore signals higher potency. For orientation: solubility means how much of the substance goes into solution per volume.

We go through 4 molecules from US10399968B2, “Hydroxyalkyl thiadiazole derivatives” (Daiichi Sankyo Company, Limited, priority 2015, dated 2019).

The structures appear in SMILES notation. Converted amounts (≈) assume the structure as drawn. Like-named read-outs stand apart in the source and are kept apart here. Some results are limits rather than exact numbers.

One data set has as its system S. aureus ATCC 29213. The experiment in a line: Susceptibility of bacteria, broth microdilution MIC. It is filed as cell-based. Particulars: Staphylococcus aureus, ATCC29213. The procedure:
The antibacterial activity of the compounds of the present invention was tested by the broth microdilution method. The assay was carried out according to the CLSI guidelines for managing the procedures of susceptibility tests: “M7-A7 Methods for Dilution Antimicrobial Susceptibility Tests for Bacteria That Grow Aerobically; Approved Standard-Seventh Edition (2006)”. Test strains were grown on appropriate agar plates overnight. A broth containing the test compound diluted serially 2-fold and diluents were dispensed at 100 μL to each well of a 96-well microplate. As a growth control, a well with a broth not containing the test compound was also prepared. Colonies grown on the plates were suspended in saline, adjusted to 0.5 McFarland (OD625=0.08 to 0.10) using a colorimeter, and then diluted 10-fold with saline. The bacterial suspension was inoculated at 4 μL into each well of the microplate using a bacterial suspension inoculation apparatus. The inoculated microplate was incubated at 35° C. overnight (about 20 hours). The growth condition was observed by the naked eye, and the minimum concentration to inhibit bacterial proliferation was defined as a minimum inhibitory concentration (MIC). The MICs of compounds disclosed herein for E. faecium, Streptococcus pneumoniae and Haemophilus influenzae are shown in Table 2, while for S. aureus in Table 3.
A general note: Dilution methods test growth across graded concentrations, often in twofold steps.

Data set [1] concerns Clostridium difficile ATCC 43255. Kind of data set: Susceptibility of Clostridium difficile, agar dilution MIC. The class given is cell-based. Conditions: Clostridioides difficile, ATCC43255, anaerobic. The procedure: The antibacterial activity of the compounds of the present invention against Clostridium difficile clinical isolates was tested by the agar dilution method. The assay was carried out according to the CLSI guidelines for managing the procedures of susceptibility tests “M11-A8, Methods for Antimicrobial Susceptibility Testing of Anaerobic Bacteria; Approved Standard-Eighth Edition. CLSI document (2012)”.
The test strains were spread on supplemented Brucella agar (SBA) plates and grown at 36° C. under anaerobic condition for 42 to 48 hours. The test compound dilutions were prepared with Brucella broth and SBA plates containing dilution of test compound were prepared. As an anaerobic growth control, plates not containing the test compound were also prepared. Colonies grown on plates were suspended with Brucella broth to adjust the turbidity to 0.5 McFarland using a densitometer. Suspension (1-2 μL) of the test strains was inoculated onto each agar surface by using a bacterial suspension inoculation apparatus. After anaerobic incubation at 36° C. for 42 to 48 hours, absence and presence of growth of each strain were examined with unaided eye. The MIC was determined at which a marked reduction occurs in the appearance of growth on the test plate as compared to that of growth on the anaerobic control plates.
In general terms: In agar dilution the substance is mixed into plates at graded concentrations.

The nature of data set [2]: Oral bioavailability (BA) in rats. The class given is in vivo. Conditions: male, SD, blood; Rat, 2 mg/kg oral vs jugular vein. The procedure:
To SD male rats (7 week-old) fasted overnight, a solution of the test compound Captisol® was administered into the jugular vein (3 animals) and a solution of Lutrol® F68 was administered orally (3 animals). The dose of the test compounds was 2 mg/kg body weight of the rat for both administration routes. The amount of Captisol® used was 0.36 mg/kg body weight of the rat. The amount of Lutrol® F68 used was 0.02 mg/kg body weight of the rat. The BA value was calculated by the formula below using the integration value (AUCiv(0-∞)) of the blood concentration extrapolated from time 0 to infinity after administration of both test compounds. The greater a BA value of the compound shown, the higher the oral bioavailability is.

Data set [3] in a line: Oral bioavailability (BA) in monkeys. It is filed as in vivo, Macaca fascicularis. Particulars: male, cynomolgus monkey, blood, 1 mg/kg oral vs jugular vein. The procedure:
To male Macaca fascicularis (3 or 4 year-old) fasted overnight, a solution of the test compound Captisol® was administered into the jugular vein (3 animals) and a solution of Lutrol® F68 was orally administered (3 animals). The dose of both test compounds was 1 mg/kg body weight of the monkey. The amount of Captisol® used was 0.18 mg/kg body weight of the monkey. The amount of Lutrol® F68 used was 0.02 mg/kg body weight of the monkey. The BA value was calculated by the formula below using the integration value (AUCiv(0-∞)) of the blood concentration extrapolated from time 0 to infinity after administration of both test compounds. BA(%)=[[(AUCpo(0-∞))/(dose po)]/[(AUCiv(0-∞))/(dose iv)]]×100 The greater a BA value of the compound shown, the higher the oral bioavailability is.

Data set [4] can be described thus: Change of weight when relative humidity varied stepwise. The class given is physicochemical. The procedure: The Form I thus obtained was characterized by i) the diffraction pattern obtained from powder X-ray diffraction analysis (CuK, λ=1.54 Å, scan rate=20°/min) (FIG. 2) and ii) the thermogravimetric analysis pattern (TG/DTA pattern) obtained from measurement of sample (3 mg) at heating rate of about 10° C./minute (FIG. 3). […] Further, the pattern of change of weight of the sample was shown (FIG. 4), which was observed when relative humidity was varied stepwise.
The thermogravimetric analysis pattern (TG/DTA pattern) obtained from measurement of sample (3 mg) at heating rate of about 10° C./minute is as depicted in FIG. 6. […] Further, the pattern of change of weight of the sample was shown in FIG. 7, which was observed when relative humidity was varied stepwise.

For data set [5], the target named is Clostridium difficile DNA gyrase (Clostridioides difficile, UniProt Q18C89). The experiment in a line: DNA supercoiling inhibition assay. It is filed as biochemical. Conditions: supercoiling of relaxed pBR322 DNA, 60 minutes at 37° C. The procedure: DNA supercoiling assays (30 μL reaction) were performed in a buffer containing 15 mM Tris-HCl pH 7.5, 13% glycerol, 6 mM MgCl2, 0.1 mg/mL BSA, 70 mM KCl, 1 mM dithioerythritol, 400 ng of DNA substrate (relaxed pBR322 DNA) and different concentrations of test compounds and/or standards. The dilutions of test compounds and standards were prepared in 20% dimethylsulfoxide (DMSO) and added 3 μL/reaction. The reaction was started by adding 2 μL amounts of Clostridium difficile DNA gyrase into the reaction mixtures and reactions were allowed to proceed for 60 minutes at 37° C. A reaction was carried out by adding 3 μL of 20% DMSO instead of test compound as full reaction control, and another reaction was carried out by adding sterile water instead of the enzyme as no reaction control.
Reactions were stopped by the addition of 5 μL of 6×loading dye and were analyzed by electrophoresis through 1.0% agarose gels with 1×TAE running buffer. Gels were run at 60 V for 3 hours, stained with EtBr, and visualized by Gel Doc system (BioRad). Intensity of the supercoiled DNA bands was quantified, and the IC50 of Clostridium difficile DNA gyrase was calculated using Graph Pad Prism.

The test system of a further data set is E. faecium ATCC 29212. The experiment in a line: Susceptibility of bacteria, broth microdilution MIC. It is filed as cell-based. Conditions: Enterococcus faecium, ATCC29212. The procedure:
(§1) The antibacterial activity of the compounds of the present invention was tested by the broth microdilution method. The assay was carried out according to the CLSI guidelines for managing the procedures of susceptibility tests: “M7-A7 Methods for Dilution Antimicrobial Susceptibility Tests for Bacteria That Grow Aerobically; Approved Standard-Seventh Edition (2006)”. Test strains were grown on appropriate agar plates overnight. A broth containing the test compound diluted serially 2-fold and diluents were dispensed at 100 μL to each well of a 96-well microplate. As a growth control, a well with a broth not containing the test compound was also prepared. Colonies grown on the plates were suspended in saline, adjusted to 0.5 McFarland (OD625=0.08 to 0.10) using a colorimeter, and then diluted 10-fold with saline. The bacterial suspension was inoculated at 4 μL into each well of the microplate using a bacterial suspension inoculation apparatus. The inoculated microplate was incubated at 35° C. overnight (about 20 hours). The growth condition was observed by the naked eye, and the minimum concentration to inhibit bacterial proliferation was defined as a minimum inhibitory concentration (MIC).

Data set [6] relates to Haemophilus influenzae ATCC 49247. The description is as above. It is filed as cell-based. Particulars: ATCC49247. The procedure: as §1
Data set [7] concerns Streptococcus pneumoniae ATCC 49619. The data set is described as above. It is filed as cell-based. Conditions: ATCC49619. The procedure: as §1
Data set [8] in a line: Solubility in water (JP1 / JP2 fluids). The class given is physicochemical. Conditions: thermodynamic from solid. The procedure:
A 10 mmol/L solution of the test compound was prepared in DMSO and dispensed 100 μL of 10 mmol/L DMSO stock solutions into labeled glass tubes in duplicate, one for Japanese Pharmacopeia First Fluid (JP1) and second for Japanese Pharmacopeia Second Fluid (JP2). After evaporation of DMSO from each tube, 500 μL of JP1 and JP2 fluid were added in each tube, respectively. These tubes were sonicated for 1 minute and placed on shaker for 30 minutes with an interval of 30 seconds at every 5 minute. Tubes were placed in dark at room temperature for 1 hour and solution was filtered through membrane filter. The filtrate was diluted 2-fold and 10-fold. The resulting test solutions was analyzed and quantified against the standards using UPLC (standard preparation—10 mmol/L solution in DMSO is serially diluted with 50% aqueous acetonitrile solution to prepare 2 solutions; 100 μmol/L standard solution and 5 μmol/L standard solutions).

In the next data set the test system is Staphylococcus aureus. The experiment in a line: Neutropenic mouse thigh or calf muscle infection model. It is filed as in vivo. Particulars: neutropenic mice, compared with linezolid. From the text:
After culture in broth medium (i) suitable diluent of a bacterial suspension of the Staphylococcus aureus strain, or (ii) equivalent mixture of suitable diluent of a bacterial suspension of the Enterococcus faecium strain and a 10% mucin suspension were used as the inoculum. The bacterial suspension was inoculated under anesthesia with a ketamine-xylazine mixture into the thigh or calf muscle of Swiss albino mice or ICR mice (4- to 6-week-old) compromised by the cyclophosphamide administration. The drug was administered to the mice 1 to 8 times at an interval of 3 to 24 hours. The number of bacteria in the thigh or calf muscle was counted for the non-treated group immediately before initial administration of the drug (pre-control), for the non-treated group (post-control) and for the drug-administered group on the next day of administration of the drug and infection. A change in the number of bacteria in the thigh or calf muscle was used as an index of therapeutic effect.

Sequence of Clostridium difficile DNA gyrase (Q18C90 entry or part of it): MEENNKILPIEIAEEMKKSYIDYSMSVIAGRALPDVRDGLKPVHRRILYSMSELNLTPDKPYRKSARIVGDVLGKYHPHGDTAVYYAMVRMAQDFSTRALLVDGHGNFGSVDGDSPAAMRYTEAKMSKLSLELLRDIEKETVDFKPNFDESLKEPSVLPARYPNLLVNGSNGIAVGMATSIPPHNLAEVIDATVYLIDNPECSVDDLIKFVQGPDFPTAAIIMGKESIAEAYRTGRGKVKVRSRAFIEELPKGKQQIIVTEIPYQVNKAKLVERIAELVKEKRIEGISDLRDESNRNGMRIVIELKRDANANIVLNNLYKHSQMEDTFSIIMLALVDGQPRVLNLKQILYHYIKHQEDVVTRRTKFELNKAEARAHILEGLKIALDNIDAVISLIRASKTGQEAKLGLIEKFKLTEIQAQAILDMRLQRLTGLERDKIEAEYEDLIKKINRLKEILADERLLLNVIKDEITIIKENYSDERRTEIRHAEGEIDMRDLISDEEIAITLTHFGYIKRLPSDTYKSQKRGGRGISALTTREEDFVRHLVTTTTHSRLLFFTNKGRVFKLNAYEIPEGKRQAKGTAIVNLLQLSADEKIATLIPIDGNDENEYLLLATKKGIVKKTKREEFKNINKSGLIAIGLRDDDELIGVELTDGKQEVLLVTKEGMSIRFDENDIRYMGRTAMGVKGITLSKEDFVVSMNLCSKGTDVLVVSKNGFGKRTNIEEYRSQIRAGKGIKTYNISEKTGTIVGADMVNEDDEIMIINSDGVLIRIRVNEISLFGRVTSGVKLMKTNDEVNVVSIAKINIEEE
Sequence of Clostridium difficile DNA gyrase (Q18C89 entry or part of it): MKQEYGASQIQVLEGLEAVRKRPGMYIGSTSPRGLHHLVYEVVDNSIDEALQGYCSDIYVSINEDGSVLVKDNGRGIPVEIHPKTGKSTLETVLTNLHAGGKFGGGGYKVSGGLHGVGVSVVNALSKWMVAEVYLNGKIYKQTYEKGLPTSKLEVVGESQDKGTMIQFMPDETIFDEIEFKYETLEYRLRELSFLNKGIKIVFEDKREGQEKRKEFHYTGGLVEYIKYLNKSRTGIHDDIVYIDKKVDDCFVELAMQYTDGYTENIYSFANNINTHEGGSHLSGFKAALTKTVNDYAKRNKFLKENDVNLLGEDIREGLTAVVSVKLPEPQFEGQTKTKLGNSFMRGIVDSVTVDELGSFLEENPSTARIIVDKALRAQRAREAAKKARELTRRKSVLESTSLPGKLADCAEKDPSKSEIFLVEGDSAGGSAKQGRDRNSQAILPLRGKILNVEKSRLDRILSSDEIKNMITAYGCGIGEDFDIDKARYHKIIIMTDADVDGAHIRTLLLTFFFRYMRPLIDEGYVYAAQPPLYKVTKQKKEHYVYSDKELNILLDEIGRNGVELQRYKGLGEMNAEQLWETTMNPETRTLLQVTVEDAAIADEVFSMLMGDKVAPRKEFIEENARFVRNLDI

Consider `CCc1[nH]c(C(=O)N[C@@H]2CCN(c3nnc(C(C)O)s3)C[C@@H]2OC)nc1Cl` (mixture of isomers) [Compound No. 3, 4-Chloro-5-ethyl-N-{(3S,4R)-1-[5-(1-hydroxyethyl)-1,3,4-thiadiazol-2-yl]-3-methoxypiperidin-4-yl}-1H-imidazole-2-carboxamide], for which the MIC was found to be 0.5 µg/mL with S. aureus ATCC 29213 and 0.125 µg/mL in [1]. The bioavailability in data set [2] amounted to 51%; in data set [3] it was 100%.
In data set [4], `CCc1[nH]c(C(=O)N[C@@H]2CCN(c3nnc(C(C)(C)O)s3)C[C@@H]2OC)nc1Cl` [Form I, 4-chloro-5-ethyl-N-{(3S,4R)-1-[5-(2-hydroxypropan-2-yl)-1,3,4-thiadiazol-2-yl]-3-methoxypiperidin-4-yl}-1H-imidazole-2-carboxamide] gave a change of weight not above 0.3%.
`CCc1[nH]c(C(=O)N[C@@H]2CCN(c3nnc([C@@H](C)O)s3)C[C@@H]2OC)nc1Cl` (single isomer, unassigned) [Compound No. 4]: the IC50 in [5] is 14.5 nM. The MIC stood at 0.25 µg/mL (≈ 0.603 µM) against E. faecium ATCC 29212; 1 µg/mL (≈ 2.41 µM) in data set [6]; 0.25 µg/mL (≈ 0.603 µM) in [7]; 0.5 µg/mL (≈ 1.21 µM) against S. aureus ATCC 29213; 0.06 µg/mL (≈ 0.145 µM) in data set [1]. Moreover, the solubility at 30 min in [8] (Japanese Pharmacopeia First Fluid (JP1), pH 1.2, simulated gastric fluid, read-out: Solubility JP1) was 612 µg/mL (≈ 1470 µM); in data set [8] (Japanese Pharmacopeia Second Fluid (JP2), pH 6.8, aqueous buffer, read-out: Solubility JP2), 304 µg/mL (≈ 733 µM). Besides, the bioavailability in data set [3] is 92%. In the data set on Staphylococcus aureus, the “therapeutic effect against Staphylococcus aureus (number of bacteria in thigh or calf muscle)” value was “equivalent to or higher than linezolid”.
`CCc1[nH]c(C(=O)N[C@@H]2CCN(c3nnc(C(C)(C)O)s3)C[C@@H]2OC)nc1Cl` [Form II, 4-chloro-5-ethyl-N-{(3S,4R)-1-[5-(2-hydroxypropan-2-yl)-1,3,4-thiadiazol-2-yl]-3-methoxypiperidin-4-yl}-1H-imidazole-2-carboxamide]: the “weight change due absorption or desorption of moisture” value in [4] is listed as “no weight change”.
